Assays:
[1] = tested on: sodium channel; experiment: Guanidine influx assay; type: cell-based, human or rat; conditions: known cell line that expresses a sodium channel; read-out: IC50 Activity Level
Source text: This example describes an in vitro assay for testing and profiling test agents against human or rat sodium channels stably expressed in cells of either an endogenous or recombinant origin. The assay is also useful for determining the IC50 of a sodium channel blocking compound. The assay is based on the guanidine flux assay described by Reddy, N. L., et al., J. Med. Chem. (1998), 41(17):3298-302.
The guanidine influx assay is a radiotracer flux assay used to determine ion flux activity of sodium channels in a high-throughput microplate-based format. The assay uses ^14C-guanidine hydrochloride in combination with various known sodium channel modulators, to assay the potency of test agents. Potency is determined by an IC50 calculation. Selectivity is determined by comparing potency of the compound for the channel of interest to its potency against other sodium channels (also called ‘selectivity profiling’).
Each of the test agents is assayed against cells that express the channels of interest. Voltage gated sodium channels are either TTX sensitive or insensitive. This property is useful when evaluating the activities of a channel of interest when it resides in a mixed population with other sodium channels. The following Table 1 summarizes cell lines useful in screening for a certain channel activity in the presence or absence of TTX.
It is also possible to employ recombinant cells expressing these sodium channels. Cloning and propagation of recombinant cells are known to those skilled in the art (see, for example, Klugbauer, N, et al., EMBO J. (1995), 14(6):1084-90; and Lossin, C., et al., Neuron (2002), 34, pp. 877-884).
Cells expressing the channel of interest are grown according to the supplier or in the case of a recombinant cell in the presence of selective growth media such as G418 (Gibco/Invitrogen). The cells are disassociated from the culture dishes with an enzymatic solution (1×) Trypsin/EDTA (Gibco/Invitrogen) and analyzed for density and viability using haemocytometer (Neubauer). Disassociated cells are washed and resuspended in their culture media then plated into Scintiplates (Beckman Coulter Inc.) (approximately 100,000 cells/well) and incubated at 37° C./5% CO2. for 20-24 hours. After an extensive wash with Low sodium HEPES-buffered saline solution (LNHBSS) (150 mM Choline Chloride, […] (Sigma), 1 mM Calcium Chloride, 5 mM Potassium Chloride, 1 mM Magnesium Chloride, 10 mM Glucose) agents diluted with LNHBSS are added to each well. (Varying concentrations of test agent may be used). The activation/radiolabel mixture contains aconitine (Sigma) to increase the percentage of time that the sodium channels are open, and ^14C-guanidine hydrochloride (ARC) to measure flux through the voltage-gated sodium channels.
After loading the cells with test agent and activation/radiolabel mixture, the Scintiplates are incubated at ambient temperature. Following the incubation, the Scintplates are extensively washed with LNHBSS supplemented with guanidine (Sigma). The Scintiplates are dried and then counted using a Wallac MicroBeta TriLux (Perkin-Elmer Life Sciences). The ability of the test agent to block sodium channel activity is determined by comparing the amount of ^14C-guanidine present inside the cells expressing the different sodium channels.
The IC50 value of a test agent for a specific sodium channel may be determined using the above general method. […] Typically the mid-point concentration of test agent is set at 1 μM, and sequential concentrations of half dilutions greater or smaller are applied (e.g. 0.5 μM; 5 μM and 0.25 μM; 10 μM and 0.125 μM; 20 μM etc.). The IC50 curve is calculated using the 4 Parameter Logistic Model or Sigmoidal Dose-Response Model formula (fit=(A+((B−A)/(1+((C/x)^D)))).
The fold selectivity, factor of selectivity or multiple of selectivity, is calculated by dividing the IC50 value of the test sodium channel by the reference sodium channel, for example, NaV1.5. […]

[2] = tested on: inactivated state of the channel of interest (sodium channel); experiment: Electrophysiological assay (whole cell voltage clamp); type: cell-based; conditions: affinity for the inactivated state of the channel
Protocol: Cells expressing the channel of interest are cultured in DMEM growth media (Gibco) with 0.5 mg/mL G418, +/−1% PSG, and 10% heat-inactivated fetal bovine serum at 37° C. and 5% CO2. For electrophysiological recordings, cells are plated on 10 mm dishes.
Whole cell recordings are examined by established methods of whole cell voltage clamp (Bean et al., op. cit.) using an Axopatch 200B amplifier and Clampex software (Axon Instruments, Union City, Calif.). All experiments are performed at ambient temperature. Electrodes are fire-polished to resistances of 2-4 Mohms Voltage errors and capacitance artifacts are minimized by series resistance compensation and capacitance compensation, respectively. Data are acquired at 40 kHz and filtered at 5 kHz. The external (bath) solution consists of: NaCl (140 mM), KCl (5 mM), CaCl2 (2 mM), MgCl2 (1 mM), HEPES (10 mM) at pH 7.4. The internal (pipette) solution consists of (in mM): NaCl (5), CaCl2 (0.1), MgCl2 (2), CsCl (10), CsF (120), HEPES (10), EGTA (10), at pH 7.2.
To estimate the steady-state affinity of compounds for the resting and inactivated state of the channel (Kr and Ki, respectively), 12.5 ms test pulses to depolarizing voltages from −60 to +90 m V from a holding potential of −120 m V is used to construct current-voltage relationships (I-V curves). A voltage near the peak of the IV-curve (−30 to 0 m V) is used as the test pulse throughout the remainder of the experiment. Steady-state inactivation (availability) curves are then constructed by measuring the current activated during a 8.75 ms test pulse following 1 second conditioning pulses to potentials ranging from −120 to −10 mV.
The steady-state voltage-dependence of binding of a compound to a sodium channel is determined by measuring the blockage of the ionic current at two holding potentials. Binding to rested-state channels is determined by using a holding potential of −120 mV, so that maximal availability is achieved. Binding to inactivated-state channels is evaluated at a holding potential such that only 10% of the channels are available to open. The membrane potential is held at this voltage for at least 10 seconds so that drug binding can equilibrate.
The apparent dissociation constant at each voltage is calculated with the equation:
[formula] where Kd is the dissociation constant (either Kr or Ki), and [Drug] is the concentration of the test compound.
The Example numbers provided in Table 3 correspond to the Examples herein: […]

[3] = target: T1, CYP3A4 (Homo sapiens, UniProt P08684); experiment: Cytochrome P450 (CYP450) inhibition assay, fluorescence-based; type: in vitro ADME; conditions: recombinant CYP3A4 (P450 Baculosomes), probe Vivid substrate (fluorogenic)
T1 construct: purchased Invitrogen Corporation (Vivid CYP450 Screening Kit)
T1 sequence (P08684 whole entry): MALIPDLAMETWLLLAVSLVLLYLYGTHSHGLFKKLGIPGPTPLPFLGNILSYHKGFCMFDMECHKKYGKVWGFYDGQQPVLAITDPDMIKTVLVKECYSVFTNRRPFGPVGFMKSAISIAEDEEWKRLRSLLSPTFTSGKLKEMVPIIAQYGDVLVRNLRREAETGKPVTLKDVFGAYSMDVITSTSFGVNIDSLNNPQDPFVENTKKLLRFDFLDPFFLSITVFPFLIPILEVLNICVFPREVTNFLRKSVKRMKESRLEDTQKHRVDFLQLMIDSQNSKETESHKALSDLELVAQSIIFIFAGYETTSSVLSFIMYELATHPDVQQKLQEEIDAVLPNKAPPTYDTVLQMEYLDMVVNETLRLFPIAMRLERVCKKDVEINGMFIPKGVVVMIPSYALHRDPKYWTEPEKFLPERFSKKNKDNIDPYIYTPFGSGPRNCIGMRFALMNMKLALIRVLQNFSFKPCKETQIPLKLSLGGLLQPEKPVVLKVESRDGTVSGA

[4] = target: CYP2C19 (Homo sapiens, UniProt P33261)
CYP2C19, sequence (P33261 whole entry): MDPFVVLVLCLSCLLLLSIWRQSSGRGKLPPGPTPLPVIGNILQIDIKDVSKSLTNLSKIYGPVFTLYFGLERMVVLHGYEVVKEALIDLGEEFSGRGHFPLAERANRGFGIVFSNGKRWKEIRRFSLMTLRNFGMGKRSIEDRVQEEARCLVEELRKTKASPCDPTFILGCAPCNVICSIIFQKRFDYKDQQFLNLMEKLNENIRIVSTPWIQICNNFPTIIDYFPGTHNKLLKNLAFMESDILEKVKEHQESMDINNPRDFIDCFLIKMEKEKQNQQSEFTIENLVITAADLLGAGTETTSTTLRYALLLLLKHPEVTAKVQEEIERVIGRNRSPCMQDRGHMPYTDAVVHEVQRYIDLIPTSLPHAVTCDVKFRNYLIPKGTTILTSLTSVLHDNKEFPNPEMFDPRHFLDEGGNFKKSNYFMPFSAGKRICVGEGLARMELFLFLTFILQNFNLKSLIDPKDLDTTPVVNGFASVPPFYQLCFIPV

[5] = target: CYP2C9 (Homo sapiens, UniProt P11712)
CYP2C9, sequence (P11712 whole entry): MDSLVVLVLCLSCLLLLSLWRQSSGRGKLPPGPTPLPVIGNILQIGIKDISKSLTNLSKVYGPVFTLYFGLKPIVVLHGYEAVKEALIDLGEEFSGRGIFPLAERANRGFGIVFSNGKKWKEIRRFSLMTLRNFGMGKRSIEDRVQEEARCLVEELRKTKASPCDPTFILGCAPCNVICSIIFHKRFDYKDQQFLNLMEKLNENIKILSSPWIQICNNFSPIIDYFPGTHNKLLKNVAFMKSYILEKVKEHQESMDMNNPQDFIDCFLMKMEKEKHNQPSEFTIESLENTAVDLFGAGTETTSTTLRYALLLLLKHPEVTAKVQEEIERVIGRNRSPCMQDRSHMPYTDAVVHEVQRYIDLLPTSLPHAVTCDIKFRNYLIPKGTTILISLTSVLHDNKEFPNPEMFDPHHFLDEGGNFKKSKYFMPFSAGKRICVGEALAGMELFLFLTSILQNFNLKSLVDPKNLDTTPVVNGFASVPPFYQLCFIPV

[6] = target: SK-N-BE2C (Nav1.8) (Homo sapiens, UniProt Q9Y5Y9); type: cell-based
SK-N-BE2C (Nav1.8), sequence (Q9Y5Y9 whole entry, looked up): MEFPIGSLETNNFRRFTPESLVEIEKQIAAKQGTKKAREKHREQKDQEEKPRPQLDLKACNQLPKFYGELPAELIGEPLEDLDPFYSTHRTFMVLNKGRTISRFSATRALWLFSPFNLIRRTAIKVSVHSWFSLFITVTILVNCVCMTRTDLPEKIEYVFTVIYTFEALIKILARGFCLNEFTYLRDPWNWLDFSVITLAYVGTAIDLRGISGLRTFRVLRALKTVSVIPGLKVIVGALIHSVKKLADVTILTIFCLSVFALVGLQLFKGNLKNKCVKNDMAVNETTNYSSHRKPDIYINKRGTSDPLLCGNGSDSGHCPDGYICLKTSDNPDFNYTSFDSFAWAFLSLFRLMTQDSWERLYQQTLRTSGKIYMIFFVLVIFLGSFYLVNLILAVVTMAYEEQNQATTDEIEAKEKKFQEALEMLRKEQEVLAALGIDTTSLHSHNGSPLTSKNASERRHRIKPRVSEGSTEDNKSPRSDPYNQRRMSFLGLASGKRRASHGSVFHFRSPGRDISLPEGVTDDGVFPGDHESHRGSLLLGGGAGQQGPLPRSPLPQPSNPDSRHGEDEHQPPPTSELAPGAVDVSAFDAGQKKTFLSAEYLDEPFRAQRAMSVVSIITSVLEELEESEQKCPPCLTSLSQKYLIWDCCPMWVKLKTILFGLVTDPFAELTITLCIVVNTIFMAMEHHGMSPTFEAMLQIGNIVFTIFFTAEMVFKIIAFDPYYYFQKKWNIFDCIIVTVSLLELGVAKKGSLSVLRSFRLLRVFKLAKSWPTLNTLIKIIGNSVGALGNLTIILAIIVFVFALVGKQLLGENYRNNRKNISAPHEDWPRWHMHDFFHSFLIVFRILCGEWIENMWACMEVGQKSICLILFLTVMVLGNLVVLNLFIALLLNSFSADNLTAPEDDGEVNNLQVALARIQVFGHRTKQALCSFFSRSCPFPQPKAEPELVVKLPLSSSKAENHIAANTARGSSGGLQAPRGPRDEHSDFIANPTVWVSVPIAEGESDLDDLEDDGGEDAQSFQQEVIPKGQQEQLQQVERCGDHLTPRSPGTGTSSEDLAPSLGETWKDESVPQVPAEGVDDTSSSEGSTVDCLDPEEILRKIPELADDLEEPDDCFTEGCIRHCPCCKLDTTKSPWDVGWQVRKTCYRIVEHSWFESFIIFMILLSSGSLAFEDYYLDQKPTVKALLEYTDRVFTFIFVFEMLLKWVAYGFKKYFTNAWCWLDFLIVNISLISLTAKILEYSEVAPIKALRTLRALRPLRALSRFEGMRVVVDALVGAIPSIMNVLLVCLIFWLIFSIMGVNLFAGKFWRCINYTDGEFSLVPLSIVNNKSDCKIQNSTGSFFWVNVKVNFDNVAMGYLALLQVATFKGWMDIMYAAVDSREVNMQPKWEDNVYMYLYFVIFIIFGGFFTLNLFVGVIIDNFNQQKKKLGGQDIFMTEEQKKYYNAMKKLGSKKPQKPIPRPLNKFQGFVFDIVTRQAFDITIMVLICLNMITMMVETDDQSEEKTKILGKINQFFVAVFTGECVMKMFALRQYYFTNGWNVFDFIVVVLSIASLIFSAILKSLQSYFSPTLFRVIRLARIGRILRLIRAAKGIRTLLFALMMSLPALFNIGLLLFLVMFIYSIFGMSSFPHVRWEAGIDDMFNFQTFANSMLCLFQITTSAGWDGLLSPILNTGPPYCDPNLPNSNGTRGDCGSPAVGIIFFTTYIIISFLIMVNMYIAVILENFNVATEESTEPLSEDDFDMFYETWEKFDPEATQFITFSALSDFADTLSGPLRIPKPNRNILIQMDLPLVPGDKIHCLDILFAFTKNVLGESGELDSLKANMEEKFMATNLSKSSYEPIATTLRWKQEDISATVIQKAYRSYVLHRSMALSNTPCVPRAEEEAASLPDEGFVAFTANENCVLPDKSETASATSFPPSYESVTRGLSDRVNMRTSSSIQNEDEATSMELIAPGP

[7] = target: CHO-K1 (Nav1.4) (Cricetulus griseus, UniProt A0A9J7H6F9); type: cell-based, Chinese Hamster
[8] = tested on: SH-SY5Y (Nav1.9 and Nav1.7); type: cell-based, Human
[9] = target: PC12 (Nav1.2) (Rattus norvegicus, UniProt P04775)
[10] = tested on: L6 (Nav1.4 and 1.5); type: cell-based, rat

NC(=O)COc1ccc(CN2C(=O)C3(COc4cc5c(cc43)OCCO5)c3ccccc32)cc1 (stereo not shown) [Example 13.2, 2-{4-[(2′-oxo-2,3-dihydrospiro[furo[2,3-g][1,4]benzodioxine-8,3′-indol]-1′(2′H)-yl)methyl]phenoxy}acetamide]
IC50 [1]: 1 to 100 nM
Ki [2]: > 300 nM
inhibition at 10 µM [3]: > 50%
melting point: 225 to 227 °C

CN(C)CCOc1ccc(CN2C(=O)C3(COc4cc5c(cc43)OCCO5)c3ccccc32)cc1 (stereo not shown) [Example 13.4, 1′-{4-[2-(dimethylamino)ethoxy]benzyl}-2,3-dihydrospiro[furo[2,3-g][1,4]benzodioxine-8,3′-indol]-2′(1′H)-one]
IC50 [1]: 100 to 1000 nM
Ki [2]: < 300 nM
inhibition at 10 µM [3]: > 50%
melting point: 77 to 79 °C

CCOC(=O)COc1cccc(CN2C(=O)C3(COc4cc5c(cc43)CCO5)c3ccccc32)c1 (stereo not shown) [Example 14, ethyl {3-[(2′-oxo-5,6-dihydrospiro[benzo[1,2-b:5,4-b′]difuran-3,3′-indol]-1′(2′H)-yl)methyl]phenoxy}acetate]
IC50 [1]: 100 to 1000 nM
Ki [2]: > 300 nM
inhibition at 10 µM [3]: > 50%
melting point: 45 to 46 °C

O=C1N(Cc2ccc(OCCO)cc2)c2ccccc2C12COc1cc3c(cc12)OCCO3 (stereo not shown) [Example 15.3, 1′-[4-(2-hydroxyethoxy)benzyl]-2,3-dihydrospiro[furo[2,3-g][1,4]benzodioxine-8,3′-indol]-2′(1′H)-one]
Ki [2]: > 300 nM
inhibition at 10 µM [3]: < 50%
melting point: 196 to 197 °C

CC(=O)N1CCN(c2ccc(OCC3COC(Cn4ccnc4)(c4ccc(Cl)cc4Cl)O3)cc2)CC1 (stereo not shown) [Ketoconazole]
% Inhibition in 10 μM assay [4]: 65 +/− 10%

Nc1ccc(S(=O)(=O)Nc2ccnn2-c2ccccc2)cc1 [Sulfaphenazole]
% Inhibition in 10 μM assay [5]: 50 +/− 15%

NC1=N[C@H](O)[C@H]2[C@H]3O[C@]4(O)O[C@@H]([C@@H](O)[C@@]2(N1)[C@@H]4O)[C@]3(O)CO [TTX, tetrodotoxin]
block of increase in [14C] guanidine influx [6]: TTX partially blocked influx
block of increase in [14C] guanidine influx [7]: completely blocked using TTX.
block of increase in [14C] guanidine influx [8]: background was partially blocked
block of increase in [14C] guanidine influx [9]: guanidine influx was completely
block of increase in [14C] guanidine influx [10]: partially blocked by TTX at 100 nM
